Laboratory results reported in patent publication US12692259B2, “Morpholine-containing and piperazine-containing CXCR4 modulators and uses related thereto” (Emory University, priority 2021, dated 2026).

Legend:
CYP3A4 = target: T1, CYP3A4 (Homo sapiens, UniProt P08684); assay: Fluorometric CYP450 inhibition assay, CYP3A4; format: in vitro ADME; conditions: read-out: CYP450 IC50 (μM) 3A4
T1 construct: purchased Corning; host or cells: insect cells (microsomes)
Experimental: The CYP450 inhibition assays utilized microsomes from insect cells expressing human recombinant individual cDNA-expressed CYP isoforms 3A4 and 2D6, as well as the fluorogenic probe that produces fluorescent metabolite. Standard inhibitors were co-incubated with fluorogenic substrates and their inhibitory potential (IC50) was determined. Assay conditions in terms of CYP450 protein concentration and time of incubation were standardized, enzyme kinetics parameters of each fluorescent probe substrate were estimated and IC50 values of inhibitors were determined and validated on different days to check reproducibility.
A 100 mM sodium phosphate buffer was prepared and adjusted to pH 7.4. In a separate falcon tube, a 2× enzyme/substrate (E/S) solution was prepared in phosphate buffer. The final concentration of CYP2D6 (CORNING®) and 7-amido-4-methyl coumaric acid (AMMC) was 10 nM and 4 μM, and CYP3A4 (CORNING®) and 7-benzyloxy-4-(trifluoromethyl) coumarin (BFC) was 20 nM and 40 μM, respectively. In a separate falcon tube, a 2×NADPH regenerating system (NRS) was prepared in phosphate buffer.
Both enzymatic assays were conducted in a 96-well microtiter plate (Black, CORNING® COSTAR®) with a final volume of 100 μL. Preparation of the plate began with the addition of 74 μL of the E/S in the first well, and 50 μL to all subsequent wells (from 2-11). […] A 1:3 serial dilution of the test compound was conducted by removing 25 μL from the first well and diluting it with the second and so forth until the tenth row. Final concentrations yielded a range from 200 μM-0.01 μM. Well no. 11 contained no inhibitor, and well no. 12 contained no enzyme. Both were used as controls for background fluorescence. The plate was incubated for 30 min at 37° C. After incubation, the reaction was initiated by the addition of 50 μL of the 2×NRS to each well.
Immediately (within 1 min) the fluorescence was measured using a microplate reader (BIOTEK® Synergy Neo2). […] Data was exported and analyzed using Graph Pad Prism 7. […] The IC50 value was derived after the data was fitted on a 10-point curve using a four-parameter logistic regression model.

CXCR4 = CXCR4 (Homo sapiens, UniProt P61073); assay: cAMP assay in CXCR4-CHO-Glo cells (GloSensor, forskolin + SDF-1α); format: cell-based; set-up: expressed in transfected cells
From the text: Materials, reagents, and instrument—Advanced DMEM (Gibco), trypsin EDTA (0.05%, phenol red), L-glutamine, HBSS buffer with and without Ca^2+/Mg^2+ (Gibco), antibiotic-antimycotic (Gibco), hygromycin B, and geneticin selective antibiotic (G418 sulfate) were purchased from Invitrogen. Forskolin (Tocris), SDF-1α (R&D Systems), HEPES (Sigma Aldrich), FBS (Atlanta Biologicals), D-luciferin (Gold Biotechnology), sterile 60 mm tissue culture dishes, and 96-well sterile tissue culture plates were purchased from Corning.
The assay targeted CXCR4 expressed in CHO-gloSensor cells. It monitored GPCR activation based on forskolin-stimulated cAMP production in cells. The assay used a genetically encoded biosensor with its cAMP binding domain fused to luciferase. Binding of cAMP to the cAMP binding domain changed the conformation of the biosensor, leading to the activation of luciferase. The intensity of the luciferase signal (light output) resulted from the oxidation of D-luciferin to oxyluciferin is proportional to the amount of cAMP produced in the cells.
The assay was performed in triplicate using live cells in 96-well tissue culture plates. Cells were pre-incubated in the dark at room temperature for one hour in the presence of D-luciferin. Bioluminescence was quantified before and after the agonist/antagonist addition. Stock solution of forskolin and SDF-1a, was prepared in Locke-Luc buffer. Stock solutions of the test compounds were prepared in DMSO (10 mM); they were diluted by Locke's buffer for use in the assay.
CHO-Glo cells, a cell line stably expressing the GloSensor cAMP biosensor (Promega), were transfected with cDNA encoding human CXCR4 in Pires-AcGFP1 (Clontech) and a stable cell line was isolated (CXCR4-CHO-Glo cells). The CXCR4-CHO-Glo cells were grown to confluency on 60 mm tissue culture dishes. After trypsinization, the cells were plated on 96-well plates and incubated overnight. The next day, culture media in each well was aspirated and replaced with 100 μL Locke's buffer containing 4 mM D-luciferin, followed by incubation in the dark for one hour. Before the addition of agonist/antagonist, each plate was read five times at 2 min intervals to obtain basal bioluminescence values from each well. The average of these five pre-readings was used to normalize each well's response to account for differences in GloSensor expression and cell density. After five pre-readings, cAMP formation was initiated with the addition of 50 μL solution of test compound (TC) in Locke Luc buffer containing forskoline and SDF-1α. […] Luminescence was measured immediately after the addition of the antagonist solution. The measurements were taken every two minutes for 30 minutes in kinetics mode after antagonist addition. IC50 values were calculated from the 4-parameter logistic equation using Prism GraphPad.

in vitro = conditions: mouse, pH 7.4; for Liver Microsomes % rem. @ 10 min. M: 3 µM; for half-life at 3 µM: microsomes
Experimental: Metabolic stability assay was performed at Emory University's Department of Chemistry or by Bristol Myers Squibb. The method used by Emory University's Department of Chemistry is described below.
Each method was developed in the presence of an internal standard (ISTD) d5-7-ethoxy coumarin. The column temperature was maintained at 40° C. for most of the samples otherwise noted. The detection was operated in the Agilent JetStream electrospray positive ionization using multiple reaction monitoring mode (MRM).
Other MS conditions were as follows: dwell time 100 ms; gas flow 10 L/min; nebulizer pressure 45 psi; delta EMV 200 V; fragmentor voltage and collision energy for individual compounds vary.
Test compounds were dissolved in 100% DMSO or 100% MeOH to make 10 mM stock solutions. Verapamil (Sigma Aldrich) aided as a positive control and was dissolved in 100% DMSO to make 10 mM stock solutions. The 10 mM stock solution of test and control compounds were further diluted in potassium phosphate buffer (100 mM, pH 7.4) to 500 μM to ensure the organic solvent content was <0.2%. Human liver microsomes (HLMs) were purchased from Xenotech at 20 mg/mL. NADPH (Sigma Aldrich) 10 mM stocks were prepared in deionized water.
The HLM assay was prepared in a 1.5 mL Eppendorf tube with a final volume of 1100 μL for duplicate runs. Each reaction contained phosphate buffer (928.4 μL), liver microsomes (55 μL), and test compound resulting in a final concentration of 3 μM (6.6 μL of 500 μM). The reaction was initiated with 110 μL of 10 mM NADPH. […] Before centrifugation each of the aliquoted tubes were vortexed to make sure compounds were in the solution. The aliquots were centrifuged at 12,000 g for 5 min and the supernatant removed and placed in an LC-MS vial. Each time point was assessed using LC-MS and the area, based on the extracted ion, was integrated with respect to the ISTD. […] A no-NADPH negative control with test or control compound was performed in a single run (150 μL) at the longest time point. Controls were processed and analyzed like the test compounds. Each time point was run in duplicates followed by in-between blank washes to avoid the carryover and to equilibrate the column.
The MLM assay was performed using the same procedures as those described above for the HLM assay.

Sequence of CXCR4 (P61073 whole entry): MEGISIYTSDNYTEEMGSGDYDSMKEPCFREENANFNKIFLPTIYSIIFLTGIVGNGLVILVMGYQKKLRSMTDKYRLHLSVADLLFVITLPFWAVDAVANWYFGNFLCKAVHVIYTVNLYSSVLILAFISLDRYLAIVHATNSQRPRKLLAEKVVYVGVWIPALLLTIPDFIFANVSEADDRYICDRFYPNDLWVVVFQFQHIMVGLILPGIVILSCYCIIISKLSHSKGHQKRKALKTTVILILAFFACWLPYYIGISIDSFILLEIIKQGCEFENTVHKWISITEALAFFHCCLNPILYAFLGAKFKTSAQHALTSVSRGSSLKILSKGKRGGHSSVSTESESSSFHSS
T1 sequence (P08684 whole entry): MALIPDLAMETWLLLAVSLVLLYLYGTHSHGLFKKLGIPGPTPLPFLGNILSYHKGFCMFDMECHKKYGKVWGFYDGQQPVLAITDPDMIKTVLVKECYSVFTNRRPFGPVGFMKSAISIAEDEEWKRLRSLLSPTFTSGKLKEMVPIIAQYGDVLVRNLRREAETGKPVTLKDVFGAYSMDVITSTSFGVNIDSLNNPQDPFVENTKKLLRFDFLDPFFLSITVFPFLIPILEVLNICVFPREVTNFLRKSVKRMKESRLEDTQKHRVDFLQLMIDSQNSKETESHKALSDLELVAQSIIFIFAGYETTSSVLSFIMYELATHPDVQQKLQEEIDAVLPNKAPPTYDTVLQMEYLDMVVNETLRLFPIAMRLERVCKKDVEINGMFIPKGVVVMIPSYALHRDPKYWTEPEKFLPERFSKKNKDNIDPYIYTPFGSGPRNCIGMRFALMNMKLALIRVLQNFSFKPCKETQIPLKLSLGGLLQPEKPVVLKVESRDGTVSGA

| IC50 (CYP3A4) | IC50 (CXCR4) | Liver Microsomes % rem. @ 10 min. M (in vitro) | half-life at 3 µM (in vitro) | SMILES |
| --- | --- | --- | --- | --- |
| 48.4 µM | 244 nM | – | 126 min | CN1CCN(c2cccc3c2C[C@@H](CN(C)[C@H]2CCCc4cccnc42)NC3)C(=O)C1 [EMU-251, 4-methyl-1-((S)-3-((methyl((S)-5,6,7,8-tetrahydroquinolin-8-yl)amino)methyl)-1,2,3,4-tetrahydroisoquinolin-5-yl)piperazin-2-one] |
| 14.3 µM | 31.6 nM | – | 35 min | CN(C[C@H]1Cc2c(cccc2N2CCNC(=O)C2)CN1)[C@H]1CCCc2cccnc21 [EMU-254, 4-((R)-3-((methyl((S)-5,6,7,8-tetrahydroquinolin-8-yl)amino)methyl)-1,2,3,4-tetrahydroisoquinolin-5-yl)piperazin-2-one] |
| 13.7 µM | 69.3 nM | – | 17 min | CN1CCN(c2cccc3c2C[C@H](CN(C)[C@H]2CCCc4cccnc42)NC3)CC1=O [EMU-255, 1-methyl-4-((R)-3-((methyl((S)-5,6,7,8-tetrahydroquinolin-8-yl)amino)methyl)-1,2,3,4-tetrahydroisoquinolin-5-yl)piperazin-2-one] |
| 16.3 µM | 14.6 nM | – | 5.5 min | CC(=O)N1CCN(c2cccc3c2C[C@H](CN(C)[C@H]2CCCc4cccnc42)NC3)CC1 [EMU-262, 1-(4-((R)-3-((methyl((S)-5,6,7,8-tetrahydroquinolin-8-yl)amino)methyl)-1,2,3,4-tetrahydroisoquinolin-5-yl)piperazin-1-yl)ethan-1-one] |
| 24.1 µM | 48.3 nM | – | 3 min | CN(C[C@H]1Cc2c(cccc2N2CCN(S(C)(=O)=O)CC2)CN1)[C@H]1CCCc2cccnc21 [EMU-263, (S)—N-methyl-N—(((R)-5-(4-(methylsulfonyl)piperazin-1-yl)-1,2,3,4-tetrahydroisoquinolin-3-yl)methyl)-5,6,7,8-tetrahydroquinolin-8-amine] |

More lines, now with the values behind:

| SMILES | IC50 (CYP3A4) | IC50 (CXCR4) | Liver Microsomes % rem. @ 10 min. M (in vitro) | half-life at 3 µM (in vitro) |
| --- | --- | --- | --- | --- |
| CN(C[C@H]1Cc2c(cccc2N2CC3COC2C3)CN1)[C@H]1CCCc2cccnc21 (stereo in doubt) [EMU-324, (S)—N—(((R)-5-((1S,4R)-2-oxa-6-azabicyclo[2.2.1]heptan-6-yl)-1,2,3,4-tetrahydroisoquinolin-3-yl)methyl)-N-methyl-5,6,7,8-tetrahydroquinolin-8-amine] | 3.5 µM | 55 nM | 36.9% | – |
| CCOC(=O)N1CCN(c2cccc3c2C[C@H](CN(C)[C@H]2CCCc4cccnc42)NC3)CC1 [EMU-261, ethyl 4-((R)-3-((methyl((S)-5,6,7,8-tetrahydroquinolin-8-yl)amino)methyl)-1,2,3,4-tetrahydroisoquinolin-5-yl)piperazine-1-carboxylate] | 7.82 µM | 3.7 nM | – | 7.4 min |
| CN1CCN(c2cccc3c2CC(CN(C)[C@H]2CCOc4cccnc42)NC3)CC1 (stereo partly drawn) [EMU-320, (4S)—N-methyl-N-((5-(4-methylpiperazin-1-yl)-1,2,3,4-tetrahydroisoquinolin-3-yl)methyl)-3,4-dihydro-2H-pyrano[3,2-b]pyridin-4-amine] | 3.2 µM | 28.9 nM | 91.6% | – |
| CN(C[C@H]1Cc2c(cccc2N2CCN3CCOC[C@H]3C2)CN1)[C@H]1CCCc2cccnc21 [EMU-343, (S)—N—(((R)-5-((R)-hexahydropyrazino[2,1-c][1,4]oxazin-8(1H)-yl)-1,2,3,4-tetrahydroisoquinolin-3-yl)methyl)-N-methyl-5,6,7,8-tetrahydroquinolin-8-amine] | > 20 µM | 6.15 nM | 33.8% | – |
